# US4680382A, “Analogues of actinomycin D” (priority 1986, dated 1987)
# Several values for one entry are separate records, joined by “and”; a condition that tells them apart may be missing. Identical values can stand only once. *1 amine or outer side, *2 acyl side, *3 side chain or, on linkers, in order; H or OH if unused. Where a SMILES comes first, the peptide text is derived from it. Bridges are numbered along the chain shown (N, C = ends). Roman numbers before positions name the chains, in order. [ ]: non-standard residue; d: D form. Actinocin(9to1) = Cc1c2oc3c(C)ccc(C(=O)[*:1])c3nc-2c(C(=O)[*:2])c(N)c1=O; NMeV = CN[C@H](C(=O)O)C(C)C; Sar = CNCC(=O)O
# Assays:
# [1] = biological target: T1, NADPH cytochrome P-450 reductase (rat liver microsomes) (Rattus norvegicus, UniProt P00388); experiment: Stimulation of NADPH oxidation in rat hepatic microsomal incubations; conditions: for NADPH oxid: 340 nm, 37° C., phenobarbital induced microsomes, mean ± standard error of triplicate, basal 9.11 ± 0.30; for percentage stimulation of NADPH oxidation over basal rate: (drug-stimulated rate - basal rate)/basal rate × 100
# T1 sequence (P00388 1-678): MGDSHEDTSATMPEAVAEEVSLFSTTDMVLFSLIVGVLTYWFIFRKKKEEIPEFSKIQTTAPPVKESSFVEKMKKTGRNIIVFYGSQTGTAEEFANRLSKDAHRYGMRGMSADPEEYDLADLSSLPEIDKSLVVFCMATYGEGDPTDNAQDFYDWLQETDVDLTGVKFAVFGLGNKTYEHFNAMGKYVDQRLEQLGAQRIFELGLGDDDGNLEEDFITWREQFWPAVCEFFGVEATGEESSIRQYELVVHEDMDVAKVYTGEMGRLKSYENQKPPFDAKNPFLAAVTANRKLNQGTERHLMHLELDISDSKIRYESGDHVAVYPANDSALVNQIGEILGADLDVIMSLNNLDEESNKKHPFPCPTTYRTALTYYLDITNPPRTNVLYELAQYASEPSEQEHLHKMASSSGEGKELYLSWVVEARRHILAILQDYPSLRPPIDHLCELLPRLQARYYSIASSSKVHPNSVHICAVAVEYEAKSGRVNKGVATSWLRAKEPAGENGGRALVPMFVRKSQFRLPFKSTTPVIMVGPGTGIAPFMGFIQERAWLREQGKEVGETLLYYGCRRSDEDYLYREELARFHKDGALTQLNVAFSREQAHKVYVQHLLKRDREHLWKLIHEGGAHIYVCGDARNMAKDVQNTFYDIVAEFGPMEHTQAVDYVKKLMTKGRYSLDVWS
# [2] = Maximum tolerated dose (LD10) in tumor-free BDF1 male mice; format: in vivo; conditions: lethal dose for 10% normal BDF1 male mice, 21 days (LD10); ip days 1, 5 and 9
# P388 Leukemia = experiment: Minimum effective dose and therapeutic index vs. P388 leukemia; format: in vivo; conditions: dose giving 45% increase in life span in P388 tumor bearing mice; ip days 1, 5 and 9
# P388 cells [3] = experiment: Inhibition of DNA synthesis (methyl-[3H]thymidine incorporation) in P388 cells; format: cell-based, murine; conditions: 50% reduction in 1 hr of methyl-[3H]thymidine incorporation, read-out: IC50 DNA synth
# P388/S = experiment: In vivo activity against P388/S (adriamycin sensitive) leukemia, Table VII; set-up: species or system BDF1 mice; conditions: for P388/S % ILS / P388/S tumor-free survivors/total on day 60: at optimal dose; for P388/S optimal dose: ip, days 1, 5 and 9
# Method: (§1) ^a Male BDF1 mice inoculated ip: 10^6 cells inoculum, day 0.
# (§2) Drugs administered in 10% dimethyl sulfoxidesaline on days 1, 5 and 9. %
# (§3) ILS = percent increase in life span. Fractions in parentheses = tumorfree
# (§4) survivors/total on day 60. P388/S (adriamycin sensitive) and P388/ADR
# (§5) (adriamycin resistant) tumors were evaluated in the same experiment with […]
# P388/ADR = experiment: In vivo activity against P388/adriamycin-resistant leukemia; set-up: species or system BDF1 mice; conditions: for P388/ADR optimal dose: ip, days 1, 5 and 9
# Method: as §1, §2, §3, §4, §5
# P388 cells [4] = experiment: Inhibition of RNA synthesis (2-[14C]uridine incorporation) in P388 cells; format: cell-based, murine; conditions: for IC50: 50% reduction in 1 hr of 2-[14C]uridine incorporation, read-out: IC50 RNA synth; for IC50 DNA/IC50 RNA: ratio
# DNA = experiment: Viscometry of DNA (test for intercalative binding); conditions: increasing [ligand]/DNA base pair ratio
# Method: The equilibrium binding constants (Kapp and Bapp) of the "reverse" methyl 7a and the "reverse" phenyl 8a were determined from the Scatchard plots of binding isotherms; the Scatchard plots are produced according to the previously described methods using calf-thymus DNA [Sengupta et al, Biochem. Biophys. Acta 521, 89 (1978)]. The Kapp values are 2.5×10^6 and 2.3×10^6 M^-1, respectively; corresponding Bapp values are 0.038 and 0.036. […] But, these "reverse" analogues associate with DNA less strongly; their frequency of binding is also lower compared to that of AMD. However, the "reverse" analogues fail to cause any measurable change in the ratio of the intrinsic viscosity (γ) of DNA with the increasing ratios of [ligand]/DNA base pair (r), even when low molecular weight DNAs (0.5×10^5 to 1.0×10^5) were employed.
Structure (SMILES),NADPH oxid [1],percentage stimulation of NADPH oxidation over basal rate [1] [%],MTD (maximum tolerated dose) [2] [milligram/kilogram],MED (minimum effective dose) (P388 Leukemia) [milligram/kilogram],IC50 (P388 cells [3]) [nM],P388/S % ILS (P388/S) [%],P388/S tumor-free survivors/total on day 60 (P388/S),P388/S optimal dose (P388/S) [mg/kg],P388/ADR % ILS (P388/ADR; at optimal dose) [%],P388/ADR optimal dose (P388/ADR) [mg/kg],IC50 (P388 cells [4]) [nM],IC50 DNA/IC50 RNA (P388 cells [4]),change in intrinsic viscosity of DNA / intercalative binding by viscometry (DNA),P388/ADR tumor-free survivors/total on day 60 (P388/ADR; at optimal dose)
"Cc1c2oc3c(C)ccc(C(=O)N[C@@H]4C(=O)N[C@H](C(C)C)C(=O)N5CCC[C@H]5C(=O)N(C)CC(=O)N(C)[C@@H](C(C)C)C(=O)O[C@@H]4C)c3nc-2c(C(=O)N[C@@H]2C(=O)N[C@H](C(C)C)C(=O)N3CCC[C@H]3C(=O)N(C)CC(=O)N(C)[C@@H](C(C)C)C(=O)O[C@@H]2C)c(N)c1=O [AMD, Actinomycin D] (I: T[dV]P[Sar][NMeV] / II: T[dV]P[Sar][NMeV]; ester I:1-I:C, II:1-II:C; linker I:N-II:N via Actinocin(9to1))",10.01 ± 0.90 nmol min^-1 (mg of protein)^-1,9.9,0.25,0.0625,1120,132,1/8,0.25,22,0.25,50,22 and 22.40,steady rise in the value of γ,–
"Cc1nc2c(C(=O)NC3C(=O)NC(C(C)C)C(=O)N4CCCC4C(=O)N(C)CC(=O)N(C)C(C(C)C)C(=O)OC3C)c3nc4c(C(=O)NC5C(=O)NC(C(C)C)C(=O)N6CCCC6C(=O)N(C)CC(=O)N(C)C(C(C)C)C(=O)OC5C)c(N)c(=O)c(C)c-4oc3c(C)c2o1 [7a, 7-Amino-2,9,11-trimethyl-8H-8-oxooxazolo [4,5-b]phenoxazine 4,6-bis[carbonyl-L-threonyl-D-valyl-L-prolylsarcosyl-L-N-methylvaline-(threonine hydroxyl)] lactone]",21.3 ± 1.93 nmol min^-1 (mg of protein)^-1,134,–,–,1010,–,–,–,–,–,90,11.22,–,–
Cc1nc2c(C(=O)NC3C(=O)NC(C(C)C)C(=O)N4CCCC4C(=O)N(C)CC(=O)N(C)C(C(C)C)C(=O)OC3C)c3nc4c(C(=O)NC5C(=O)NC(C(C)C)C(=O)N6CCCC6C(=O)N(C)CC(=O)N(C)C(C(C)C)C(=O)OC5C)cc(=O)c(C)c-4oc3c(C)c2o1 (stereo not shown) [9a],19.1 ± 1.70 nmol min^-1 (mg of protein)^-1,110,–,–,–,–,–,–,–,–,–,–,–,–
"Cc1c2oc3c(C)c(O)c(N)c(C(=O)NC4C(=O)NC(C(C)C)C(=O)N5CCCC5C(=O)N(C)CC(=O)N(C)C(C(C)C)C(=O)OC4C)c3nc-2c(C(=O)NC2C(=O)NC(C(C)C)C(=O)N3CCCC3C(=O)N(C)CC(=O)N(C)C(C(C)C)C(=O)OC2C)c(N)c1=O (stereo not shown) [4a, 7-Hydroxy-8-amino-actinomycin D]",64.3 ± 2.11 nmol min^-1 (mg of protein)^-1,606,2.40,0.025,1110,382,4/8,0.6,176,1.2,1150,0.97,lack of intercalative binding,3/8
